Our source for the IC50 and inhibition values is ChEMBL document CHEMBL1152181, “Rational design of novel glycomimetics: inhibitors of concanavalin A” (Bioorg Med Chem Lett, 2008).

Concanavalin-A, sequence (P02866 whole entry): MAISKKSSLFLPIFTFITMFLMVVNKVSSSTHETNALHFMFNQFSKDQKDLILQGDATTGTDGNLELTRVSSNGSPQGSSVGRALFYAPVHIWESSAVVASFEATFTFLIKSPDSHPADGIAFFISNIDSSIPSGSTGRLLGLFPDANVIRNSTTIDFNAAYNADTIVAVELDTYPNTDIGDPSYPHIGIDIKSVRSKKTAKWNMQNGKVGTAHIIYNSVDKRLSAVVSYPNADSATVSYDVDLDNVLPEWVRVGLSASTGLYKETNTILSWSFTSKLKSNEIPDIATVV

One experiment concerns the target Concanavalin-A (Canavalia ensiformis, UniProt P02866). Briefly: Inhibition of Canavalia ensiformis concanavalin A binding to yeast mannan by ELLA.
Turning to `Oc1cc(O)c2c(c1)OC(c1ccc(O)c(O)c1)C(O)C2c1c(O)cc(O)c2c1CC(c1ccc(O)c(O)c1)C(O)C2` (configuration not stated), the IC50 (as a rule, the point on the concentration scale where inhibition reaches its midpoint) stood at 479 µM. Turning to `NNS(=O)(=O)c1cc(C(=O)O)cc(C(=O)O)c1`, the IC50 is 19 µM.

For the molecule `NS(=O)(=O)c1ccc(/N=N/c2cccnc2O)cc1`, the IC50 is 234 µM.

For the molecule `NS(=O)(=O)c1ccc(/N=N/c2nc3nc(O)nc(O)c3[nH]2)cc1`, the IC50 came to 615 µM. For the molecule `CO[C@H]1O[C@H](CO)[C@@H](O)[C@H](O)[C@@H]1O`, the IC50 turned out to be 350 µM. Same read-out and setting: with `O=C(O)C1CCCCC1c1c2ccc(=O)c(O)c-2oc2c(O)c(O)ccc12` (configuration not stated) the figure was 29 µM.

The next experiment deals with Concanavalin-A (Canavalia ensiformis) (UniProt P02866). Briefly: Inhibition of Canavalia ensiformis concanavalin A binding to yeast mannan at 11 mM by ELLA.
Concanavalin-A (Canavalia ensiformis), sequence (P02866 whole entry): as above
With `NS(=O)(=O)c1ccc(/N=N/c2cnc(O)c(O)c2)cc1`, the inhibition (commonly the share of the control response that was lost under treatment) was 49%.
